3 molecules from paper PMC7760514, “Fatty Acid Conjugation Leads to Length-Dependent Antimicrobial Activity of a Synthetic Antibacterial Peptide (Pep19-4LF)” (Antibiotics, 2020) can be followed below.

Data set [1] concerns Rothia kristinae (DSM 20032). The data set can be described thus: Time-kill studies. The following applies: for change in number of cfu/mL: 0.5 × MIC, 0 to 8 h; for change in number of cfu/mL / time until all bacteria killed / no detectable cfu / mode of action: n = 3; for time until all bacteria killed: n=3; for time until all bacteria killed / no detectable cfu / mode of action: 4 × MIC; for time until all bacteria killed / no detectable cfu: 1 × 10^6 cfu/mL in MHB II, 37 °C. It counts as cell-based. As for the experimental part:
Time–kill studies were performed in accordance with CLSI guidelines. Therefore, Rothia kristinae DSM 20032 was adjusted to a concentration of 1 x 10^8 cfu/mL and further diluted to 1 × 10^6 cfu/mL in cation-adjusted MHB II. According to the previous determined MIC values of Pep19-4LF, C11-Pep19-4LF, and bacitracin (positive control) (Sigma Aldrich Chemie GmbH, München, Germany), samples were taken for 4 × MIC, 2 × MIC, 1 × MIC, and 0.5 × MIC after 30 min, 1 h, 2 h, 4 h, and 8 h. These samples were diluted in sterile saline and 10 µL of each sample was loaded onto agar plates. A bacterial suspension of 1 × 10^6 cfu/mL served as a growth control. Incubation occurred at 37 ± 1 °C and all counted colonies were recalculated to the colony number in the original inoculum.

For data set [2] the following is noted: rat, in vivo, iv.
Description: For this purpose, the tyrosine residues of the peptides were radiolabeled with ^125I (Hartmann Analytic GmbH, Braunschweig, Germany) using the chloramine-T method [28]. Free ^125I was separated by preparative HPLC as previously described by Schieck et al. [22]. Approximately 2 to 4 MBq of the radiolabeled peptides was injected intravenously into the tail vein and images were recorded immediately post injection and after 1 h, 2 h, 3 h, 5 h, and 24 h. Scintigraphical images were obtained by using a γ-camera (Gamma Imager, Biospace Lab, Paris, France).
The subject of data set [3] is Rothia kristinae (DSM 20032). The data set is described as follows: Minimal bactericidal concentration (MBC). The class given is cell-based. The following applies: Table 3 of supplement, n=3; unit inferred; lowest concentration killing 99.9% of the inoculum; agar 24 h, 37 ± 1 °C. As for the experimental part:
(§1) Minimal bactericidal concentrations (MBCs) were determined by pipetting 3 µL of each broth dilution solution without visible growth onto a new agar plate. The agar plates were incubated at 37 ± 1 °C (for A. bohemicus: 30 ± 1 °C) for 24 h and were again analyzed with respect to bacterial growth. MBC is defined as the lowest concentration killing 99.9% of the inoculum.

For data set [4], the system named is Acinetobacter bohemicus (DSM 100419). The data set is described as follows: Minimal bactericidal concentration (MBC). It counts as cell-based. Conditions: Table S2, n=3; unit inferred; lowest concentration killing 99.9% of the inoculum; agar 24 h, 30 ± 1 °C. As for the experimental part: as §1
The test system of data set [5] is Rothia kristinae (DSM 20032). The data set can be described thus: Minimal inhibitory concentration (MIC), broth microdilution. The class given is cell-based. Conditions: Table 3 of supplement, n=3; unit inferred; 37 ± 1 °C. As to the method: (§2) Minimal inhibitory concentrations (MICs) were determined against Gram-positive Enterococcus faecium vanA (UL 602570*, clinical isolate from Institute for Medical Microbiology and Hygiene, Heidelberg University Hospital, Heidelberg, Germany), Staphylococcus aureus (ATCC 25923), Rothia kristinae (DSM 20032), and Gram-negative Acinetobacter bohemicus (DSM 100419) (all obtained from the Department of Infectious Diseases, Medical Microbiology and Hygiene, Heidelberg University, Heidelberg, Germany) in a 96-well polypropylene plate (650261 Greiner Bio-One GmbH, Frickenhausen, Germany) according to European Committee on Antimicrobial Susceptibility Testing (EUCAST) and The Clinical & Laboratory Standards Institute (CLSI) guidelines. Briefly, the stock solutions of the peptide conjugates in water were adjusted to a concentration of 1.28 mg/mL. Starting with the highest concentration of 64 μg/mL in 96-well polypropylene plates, dilution series in cation-adjusted Mueller–Hinton broth (MHB II; Sigma Aldrich, Steinheim, Germany) were performed, resulting in the lowest concentration of 0.125 μg/mL. A logarithmic growing bacterial culture was adjusted to a McFarland corresponding to 1 × 10^8 cfu/mL using a McFarland counter (DensiCHEK® plus, bioMerieux, Marcy-l’Étoile, France). Finally, a bacterial suspension of 1 × 10^6 cfu/mL (further diluted in MHB II) was added to each peptide-conjugate concentration. Thus, the final bacterial concentration in each well was 5 × 10^5 cfu/mL. The bacteria were incubated at 37 ± 1 °C (for A. bohemicus: 30 ± 1 °C) overnight and the bacterial growth was analyzed after 18 to 20 h. The MIC was defined as the lowest concentration of substance without any visible growth. Vancomycin and colistin sulfate were purchased from Sigma-Aldrich Chemie GmbH, München, Germany and Carl Roth GmbH, Karlsruhe, Germany.
(Broth dilution looks for growth in wells or tubes with falling amounts of substance.)

Data set [6] deals with Enterococcus faecium (UL602570*, clinical isolate, vanA-resistant). Described as above. It counts as cell-based. Conditions: cation-adjusted MHB II, 5 × 10^5 cfu/mL, 37 ± 1 °C, read after 18 to 20 h, n = 3. As to the method:
as §2

For data set [7], the system named is Staphylococcus aureus (ATCC 25923). Described as above. The following applies: cation-adjusted MHB II, 5 × 10^5 cfu/mL, 37 ± 1 °C, read after 18 to 20 h, n = 3. The class given is cell-based. As for the experimental part: as §2
The format of data set [8] is physicochemical. The text has this: The high MIC value of Pep19-short indicates the importance of a hydrophobic moiety for this synthetic antimicrobial peptide. […] If the length of the fatty acid is too short, the interaction between the peptide conjugate and components of the bacterial cell membrane might be unfavorable, thus leading to loss of efficiency. Fatty acids of medium chain length enable a stable plateau of low MIC values, indicating a more efficient interaction between the peptide conjugate and bacterial cells. […] A detailed interaction between Pep19 peptides and membrane-bound toxins was previously described by Correa et al.. […] A hypothesized mechanism for this interaction represents the reorganization of the bacterial membrane leading in an inability to maintain the osmotic pressure. Here, the positively-charged amino acids of the peptide conjugate might interact with the negatively-charged compounds of the bacterial cell wall and the hydrophobic part interacts with hydrophobic lipids of the bacterial membrane. Several mechanisms for a membrane disruption by amphiphilic peptides were further described by Sato and Feix. With respect to the parent peptide Pep19-4LF, the hydrophobic moiety was located at the C-terminus. As the synthesis leads to peptides that are linked to the resin via their C-terminus, the fatty acids were linked to the free N-terminus of the peptide. […]

The subject of data set [9] is Acinetobacter bohemicus (DSM 100419). The data set is described as follows: Minimal inhibitory concentration (MIC), broth microdilution. It counts as cell-based. Details: key to MIC value: MIC in μg/mL (lowest concentration without visible growth). Conditions: 30 ± 1 °C; for MIC value: Table S2, n=3, no unit given (main text uses µg/mL). As to the method: as §2
In another data set the test system is red blood cells. The class given is cell-based, human. As to the method: A hemolysis assay was performed using heparinized blood for Pep19-4LF, Pep19-2.5, C6-Pep19-short, C11-Pep19-short, and C18-Pep19-short to test the toxicity against red blood cells and selectivity against bacterial cells. A 600 µM stock solution of each peptide was prepared in 0.9% NaCl. Heparinized blood was taken from three individual fasted, healthy volunteers. To purify the erythrocytes, the blood was centrifuged at 2500 rpm for 10 min and the supernatant was removed. The cell-pellet was resuspended in standard PBS. The centrifugation step was repeated for three times until the supernatant was visibly clear. A 96-well v-bottom plate (Greiner Bio-One International GmbH, Kremsmünster, Austria) was loaded as follows: row 1 (A1-H1) was preloaded with 100 µL of 600 µM peptide stock solution and row 12 (A12-H12) was preloaded with 50 µL 10% Triton X-100 (PerkinElmer, Boston, USA) and served as a positive control. […] Fifty µL of the supernatant was then transferred to a new 96-well flat-bottom plate (Greiner Bio-One International GmbH, Kremsmünster, Austria) and the absorbance was measured at a wavelength of 554 nm, using an Infinite M200 PRO microplate reader (Tecan Trading, Maennedorf).
Hemolysis was calculated with the following equation: Hemolysis [%]= Aconjugate− Ablank/ATriton− Ablank

Values after ≈ are worked out from the molar mass of the structure shown. Peptide text beside a SMILES is read from it. * marks the point of attachment. Hexanoyl = CCCCCC(=O)*

As for “GKKYRRFRWKFKGKLFLFG-NH2 [Pep19-4LF, synthetic antimicrobial parent peptide, …-NH2]”, in data set [1], the “change in number of cfu/mL” value is listed as “only a small decrease in the number of cfu/mL”. Also, the figures for the “time until all bacteria killed” value in data set [1] (1 × MIC) and in data set [1] (2 × MIC) were greater than 8 h and 1 h, respectively. Moreover, the “time until all bacteria killed / no detectable cfu” value in [1] came to 30 min. Besides, the mode of action result in data set [1] is “bactericidal mode of action”. The “speed of elimination compared among the peptides” value in data set [2] is “slowest elimination”. Moreover, the MBC value in [3] and in [4] was 8 µg/mL in each case. For the same molecule, the values for the MIC value in data set [5] and in [9] were 8 µg/mL and 8, respectively. Moreover, the MIC in data set [6] was 8 µg/mL; in data set [7] it was 32 µg/mL; in data set [9] (broth microdilution, cation-adjusted MHB II, 5 × 10^5 cfu/mL, read after 18 to 20 h, n = 3), 8 µg/mL. The solubility in water entry in data set [8] is “very low solubility in water”.

As for `CCCCCC(=O)NCC(=O)N[C@@H](CCCCN)C(=O)N[C@@H](CCCCN)C(=O)N[C@@H](Cc1ccc(O)cc1)C(=O)N[C@@H](CCCNC(=N)N)C(=O)N[C@@H](CCCNC(=N)N)C(=O)N[C@@H](Cc1ccccc1)C(=O)N[C@@H](CCCNC(=N)N)C(=O)N[C@@H](Cc1c[nH]c2ccccc12)C(=O)N[C@@H](CCCCN)C(=O)N[C@@H](Cc1ccccc1)C(=O)N[C@@H](CCCCN)C(=O)NCC(=O)N[C@@H](CCCCN)C(N)=O` [C6-Pep19-short] (Hexanoyl-GKKYRRFRWKFKGK-NH2), the hemolytic activity entry with red blood cells is on record as “no hemolytic activity”. Also, the MBC value in [3] was 32 µg/mL (≈ 16.1 µM); in data set [4] it was 16 µg/mL (≈ 8.07 µM). Further, the MIC value in data set [5] came to 16 µg/mL (≈ 8.07 µM); in [9], 16.

As for “C11-GKKYRRFRWKFKGK [C11-Pep19-short, Pep19-short conjugated at the N-terminus to undecanoic acid (C11:0)]”, the “change in number of cfu/mL” value in data set [1] was “only a small decrease in the number of cfu/mL”. Further, the results for the “time until all bacteria killed” value in data set [1] (1 × MIC) and in data set [1] (2 × MIC) were 4 h and 0.5 h, respectively. In [1], the “time until all bacteria killed / no detectable cfu” value is no more than 30 min. Moreover, the mode of action result in data set [1] is “fast and bactericidal mode of action”. For the same molecule, in [2], the “speed of elimination compared among the peptides” value is given as “faster excretion from the body”. In addition, the MBC value in [3] and in data set [4] was 4 µg/mL each time. In addition, the figures for the MIC value in data set [5] and in data set [9] were 4 µg/mL and 4, respectively. For the same molecule, the solubility in water result in data set [8] is “high solubility in water”.

What is called MIC is the lowest concentration found to suppress growth.
